Measured values from paper PMC2789381, “Voltage-Dependent Modulation of Cardiac Ryanodine Receptors (RyR2) by Protamine” (PLoS ONE, 2009).
Several values for one entry are separate records, joined by “and”; a condition that tells them apart may be missing. Equal values may be shown once.

Molecular target: T1, cardiac RyR2 (Sus scrofa, UniProt A0A5G2R1W3)
T1 construct: from tissue; host or cells: pig heart ventricle (sarcoplasmic reticulum microsomes)
Experiment: Single-channel recordings of RyR2 reconstituted into planar lipid bilayers
Assay type: biochemical, pig
Conditions: for dwell time of ryanodol-induced events: Vm = +20 mV, n = 7, mean±SEM; for dwell time of ryanodol-induced events / slope conductance of the induced substate (I-V curve): SEM; for substate current level as % of the current through the full open channel / substate current level as % of the full open current: 1 µg/ml protamine, 10 µM ryanodol or 50 nM IpTxA, 10 µM cytosolic Ca2+/5 mM caffeine; for substate current level as % of the full open current: Vm = +40 mV; for slope conductance of the induced substate (I-V curve): fully active RyR2 (10 µM Ca2+/5 mM caffeine), full open state 129±1 pS, n = 10 protamine, 13 ryanodol, 5 IpTxA, mean±SEM
From the text: All procedures with animals were designed to minimize pain and suffering and conformed to the guidelines of the National Institutes of Health. The committee on the Use and Care of Laboratory Animals of Southern Illinois University School of Medicine reviewed and approved the protocols for animal use. Sarcoplasmic reticulum (SR) microsomes were obtained from pig heart ventricle using heart homogenization and ultracentrifugation steps that follow the procedures published by Chamberlain et al.. SR pellets obtained after high speed centrifugation were resuspended in 290 mM sucrose - 5 mM Imidazole buffer (pH = 7) and were aliquoted in cryovials (300 µl each) and kept in liquid nitrogen (better and safer long-term storage). Every month, a few cryovials are used to generate smaller aliquots of membranes (15 µl each) which were stored at –80°C for easy access. For experiments, aliquots were quickly thawed in water, kept on ice and used within 3–5 hours.
Reconstitution of RyR2 in planar lipid bilayers, was performed as previously described. Briefly, planar lipid bilayers were formed on 80 to 100 µm-diameter circular holes in teflon septa, separating two 1.3 ml compartments. The trans compartment was filled with HEPES-Ca^2+ solution containing HEPES 250 mM and Ca(OH)2 53 mM, pH 7.4. The trans compartment was clamped at 0 mV using an Axopatch 200B patch-clamp amplifier (Axon Instruments, Foster City, CA). The cis compartment (ground) was filled with HEPES-Tris solution containing HEPES 250 mM and TrisOH 118 mM, pH 7.4. Bilayers of a 5∶4∶1 mixture of bovine brain phosphatidylethanolamine, phosphatidylserine and phosphatidylcholine (45–50 mg/ml in decane) were painted onto the holes of teflon septa from the cis side. Sarcoplasmic reticulum microsomes (5–15 µg) were then added to the cis solution followed by 500–1000 mM CsCl and 1 mM CaCl2 to promote vesicle fusion. After RyR currents (or Cl^− currents >100 pA at 0 mV) were observed, the cis chamber was perfused with HEPES-TRIS solution for 5 min at 4 ml/min. A mixture of BAPTA and dibromo-BAPTA was used to buffer free [Ca^2+] on the cytosolic surface of the channel ([Ca^2+]cyt). As previously done, RyR channels were identified by current amplitudes (∼3.5 pA at 0 mV), slope conductance (∼100 pS), reversal potential (∼−45 mV, trans - cis) and response to diagnostic ligands (e.g., ryanodine, Ca^2+, ATP, caffeine and Ruthenium Red). RyR channel currents are depicted as positive (upward deflections of the current) in figures and reflect cation flux from the trans (lumenal) to the cis (cytosolic) compartment. Membrane voltages always represent the difference between trans - cis compartments (in mV).
Channel currents were first filtered through the Axopatch 200B low-pass Bessel filter at 2 kHz, digitized at 20 kHz with an analog to digital converter (Digidata 1320, Axon Instruments) and stored on DVD. Recordings were analyzed using pClamp9 software (Axon Instruments). Analysis with this program included open times, closed times and open probabilities (Po), which were determined by half-amplitude threshold analysis of single-channel recordings as done before.
Recordings were digitally filtered at 500 Hz in order to estimate the probabilities of substates using two different methods:
Frame by frame analysis (100 ms/frame) was performed using pClamp9 on each 4-min recording. […] The parameters (mean amplitude and duration) of each event were collected and averaged. The probability of substate occurrence, Psubstate, was estimated from the ratio: time spent in substate/total recording time. Pfull open was estimated as the fraction of time spent in the maximal current level (full opening).

T1 sequence (A0A5G2R1W3 20-4900): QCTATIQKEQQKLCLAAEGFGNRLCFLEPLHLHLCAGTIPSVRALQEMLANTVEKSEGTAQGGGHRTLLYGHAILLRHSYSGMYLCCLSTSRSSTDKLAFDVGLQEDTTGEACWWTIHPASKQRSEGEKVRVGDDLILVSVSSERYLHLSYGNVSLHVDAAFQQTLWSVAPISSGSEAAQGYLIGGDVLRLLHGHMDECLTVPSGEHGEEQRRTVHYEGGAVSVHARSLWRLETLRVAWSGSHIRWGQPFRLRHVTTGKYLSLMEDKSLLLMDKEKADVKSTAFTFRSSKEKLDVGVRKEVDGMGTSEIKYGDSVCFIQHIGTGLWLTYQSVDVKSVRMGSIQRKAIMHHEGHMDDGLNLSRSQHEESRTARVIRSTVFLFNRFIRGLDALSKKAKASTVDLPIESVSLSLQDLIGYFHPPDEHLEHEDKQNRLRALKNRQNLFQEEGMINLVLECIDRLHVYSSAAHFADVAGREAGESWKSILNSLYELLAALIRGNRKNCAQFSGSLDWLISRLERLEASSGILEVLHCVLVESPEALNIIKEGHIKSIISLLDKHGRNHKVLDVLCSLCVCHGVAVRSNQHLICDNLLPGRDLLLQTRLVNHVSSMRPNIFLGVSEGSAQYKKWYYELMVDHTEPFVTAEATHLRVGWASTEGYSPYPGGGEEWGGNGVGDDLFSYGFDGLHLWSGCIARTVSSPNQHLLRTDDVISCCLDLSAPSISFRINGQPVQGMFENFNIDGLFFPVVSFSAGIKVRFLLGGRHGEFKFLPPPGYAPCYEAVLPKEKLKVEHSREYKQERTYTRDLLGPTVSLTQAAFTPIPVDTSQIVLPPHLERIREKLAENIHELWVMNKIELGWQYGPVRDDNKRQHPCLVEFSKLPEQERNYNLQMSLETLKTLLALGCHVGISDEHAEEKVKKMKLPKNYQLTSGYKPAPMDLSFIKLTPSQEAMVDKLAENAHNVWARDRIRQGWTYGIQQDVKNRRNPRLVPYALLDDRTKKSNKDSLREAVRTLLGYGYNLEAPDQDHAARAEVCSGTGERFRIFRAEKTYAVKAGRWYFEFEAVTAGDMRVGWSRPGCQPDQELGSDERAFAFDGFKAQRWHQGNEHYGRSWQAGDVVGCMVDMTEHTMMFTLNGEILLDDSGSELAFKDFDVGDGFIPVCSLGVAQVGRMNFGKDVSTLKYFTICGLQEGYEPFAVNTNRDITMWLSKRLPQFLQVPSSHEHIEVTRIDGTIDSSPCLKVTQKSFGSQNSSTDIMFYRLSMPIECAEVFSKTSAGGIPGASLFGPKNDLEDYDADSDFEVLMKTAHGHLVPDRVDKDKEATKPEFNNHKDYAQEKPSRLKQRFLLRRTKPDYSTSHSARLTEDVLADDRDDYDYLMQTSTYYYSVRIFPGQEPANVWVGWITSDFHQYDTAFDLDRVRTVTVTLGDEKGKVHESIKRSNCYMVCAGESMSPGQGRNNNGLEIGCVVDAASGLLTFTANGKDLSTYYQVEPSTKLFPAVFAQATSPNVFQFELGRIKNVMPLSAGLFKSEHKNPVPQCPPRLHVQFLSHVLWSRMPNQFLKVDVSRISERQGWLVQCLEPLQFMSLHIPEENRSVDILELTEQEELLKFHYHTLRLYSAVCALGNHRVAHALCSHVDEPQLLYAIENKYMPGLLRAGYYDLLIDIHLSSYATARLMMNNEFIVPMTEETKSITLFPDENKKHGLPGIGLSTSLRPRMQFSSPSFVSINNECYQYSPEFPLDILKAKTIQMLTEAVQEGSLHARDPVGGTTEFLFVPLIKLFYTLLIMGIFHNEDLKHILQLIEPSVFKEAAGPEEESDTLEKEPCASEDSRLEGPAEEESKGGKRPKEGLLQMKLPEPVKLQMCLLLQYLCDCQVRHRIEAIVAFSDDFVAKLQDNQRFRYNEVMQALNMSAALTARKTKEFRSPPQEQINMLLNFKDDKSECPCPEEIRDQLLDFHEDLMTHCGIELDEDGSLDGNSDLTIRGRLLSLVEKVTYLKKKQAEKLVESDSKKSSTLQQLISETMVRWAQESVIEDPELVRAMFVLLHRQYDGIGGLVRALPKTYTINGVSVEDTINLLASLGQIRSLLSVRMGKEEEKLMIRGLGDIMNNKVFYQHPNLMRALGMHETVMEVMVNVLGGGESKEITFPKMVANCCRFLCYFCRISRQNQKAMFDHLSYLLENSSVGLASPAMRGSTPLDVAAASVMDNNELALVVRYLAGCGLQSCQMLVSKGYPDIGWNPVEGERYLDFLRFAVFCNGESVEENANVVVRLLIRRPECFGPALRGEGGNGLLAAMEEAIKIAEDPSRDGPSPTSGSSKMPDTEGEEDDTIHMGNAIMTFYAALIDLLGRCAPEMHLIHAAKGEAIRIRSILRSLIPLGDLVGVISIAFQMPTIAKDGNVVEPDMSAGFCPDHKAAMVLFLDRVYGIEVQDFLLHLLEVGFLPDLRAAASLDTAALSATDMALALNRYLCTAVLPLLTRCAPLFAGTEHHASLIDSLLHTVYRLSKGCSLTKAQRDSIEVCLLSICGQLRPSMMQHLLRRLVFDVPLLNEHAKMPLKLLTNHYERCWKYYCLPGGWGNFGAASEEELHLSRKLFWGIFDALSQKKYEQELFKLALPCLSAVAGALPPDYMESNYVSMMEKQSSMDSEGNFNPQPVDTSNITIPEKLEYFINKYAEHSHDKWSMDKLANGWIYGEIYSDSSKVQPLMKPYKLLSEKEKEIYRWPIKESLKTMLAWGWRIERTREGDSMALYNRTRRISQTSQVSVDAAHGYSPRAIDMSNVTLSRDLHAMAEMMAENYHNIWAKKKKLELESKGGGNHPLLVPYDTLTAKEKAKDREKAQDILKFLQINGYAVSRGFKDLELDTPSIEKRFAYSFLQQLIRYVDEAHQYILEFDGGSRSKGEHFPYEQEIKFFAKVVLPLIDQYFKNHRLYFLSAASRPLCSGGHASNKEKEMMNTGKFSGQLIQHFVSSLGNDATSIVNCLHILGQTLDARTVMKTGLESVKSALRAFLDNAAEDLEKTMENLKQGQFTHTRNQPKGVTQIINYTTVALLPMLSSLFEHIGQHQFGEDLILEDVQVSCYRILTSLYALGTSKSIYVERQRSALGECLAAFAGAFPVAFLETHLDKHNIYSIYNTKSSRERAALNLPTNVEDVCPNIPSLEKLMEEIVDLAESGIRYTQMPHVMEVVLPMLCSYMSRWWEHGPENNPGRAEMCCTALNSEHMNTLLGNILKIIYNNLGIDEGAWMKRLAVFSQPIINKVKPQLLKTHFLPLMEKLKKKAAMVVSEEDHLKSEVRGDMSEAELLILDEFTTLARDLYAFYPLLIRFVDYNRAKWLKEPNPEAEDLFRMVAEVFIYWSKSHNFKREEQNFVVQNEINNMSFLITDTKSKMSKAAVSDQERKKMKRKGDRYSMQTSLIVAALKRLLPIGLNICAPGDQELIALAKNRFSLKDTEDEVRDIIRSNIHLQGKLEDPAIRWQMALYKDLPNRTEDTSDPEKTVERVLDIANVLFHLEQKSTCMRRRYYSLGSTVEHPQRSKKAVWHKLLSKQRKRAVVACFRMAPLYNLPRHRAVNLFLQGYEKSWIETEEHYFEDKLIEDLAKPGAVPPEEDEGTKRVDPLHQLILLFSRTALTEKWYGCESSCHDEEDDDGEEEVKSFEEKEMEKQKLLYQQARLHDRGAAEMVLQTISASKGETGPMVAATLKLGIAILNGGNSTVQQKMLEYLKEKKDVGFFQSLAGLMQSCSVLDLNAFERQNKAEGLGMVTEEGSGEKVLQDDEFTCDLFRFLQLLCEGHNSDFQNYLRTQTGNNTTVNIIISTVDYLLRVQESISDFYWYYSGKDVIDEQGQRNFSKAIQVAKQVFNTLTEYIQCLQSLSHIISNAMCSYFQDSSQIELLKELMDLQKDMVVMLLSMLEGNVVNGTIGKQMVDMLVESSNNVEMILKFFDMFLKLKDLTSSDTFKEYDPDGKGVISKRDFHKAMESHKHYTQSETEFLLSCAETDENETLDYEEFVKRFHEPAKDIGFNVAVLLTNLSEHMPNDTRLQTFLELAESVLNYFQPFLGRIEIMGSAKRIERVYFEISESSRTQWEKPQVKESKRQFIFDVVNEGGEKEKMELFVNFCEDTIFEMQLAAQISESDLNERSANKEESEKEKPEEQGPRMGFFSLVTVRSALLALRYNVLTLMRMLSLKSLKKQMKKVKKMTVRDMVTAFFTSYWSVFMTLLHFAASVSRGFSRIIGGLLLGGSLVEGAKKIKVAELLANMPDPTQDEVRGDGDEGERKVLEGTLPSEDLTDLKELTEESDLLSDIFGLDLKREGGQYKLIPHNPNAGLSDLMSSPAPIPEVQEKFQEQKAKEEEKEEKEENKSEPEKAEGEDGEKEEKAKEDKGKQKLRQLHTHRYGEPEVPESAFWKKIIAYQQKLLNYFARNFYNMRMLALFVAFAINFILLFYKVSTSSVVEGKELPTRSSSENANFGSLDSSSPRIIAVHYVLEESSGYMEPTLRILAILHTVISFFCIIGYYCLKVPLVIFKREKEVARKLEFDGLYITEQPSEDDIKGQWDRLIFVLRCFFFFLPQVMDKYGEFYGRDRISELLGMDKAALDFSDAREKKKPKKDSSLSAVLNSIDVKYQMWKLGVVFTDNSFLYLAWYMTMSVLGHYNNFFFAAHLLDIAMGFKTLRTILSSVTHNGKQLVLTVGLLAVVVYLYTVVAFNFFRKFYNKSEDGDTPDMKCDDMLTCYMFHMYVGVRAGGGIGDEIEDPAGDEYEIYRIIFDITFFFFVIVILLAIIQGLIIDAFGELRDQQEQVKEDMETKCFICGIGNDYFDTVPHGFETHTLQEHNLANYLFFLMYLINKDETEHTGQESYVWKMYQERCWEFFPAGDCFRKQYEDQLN

Compound | dwell time of ryanodol-induced events (10 µM ryanodol + 1 µg/ml protamine + 250 µg/ml heparin) | dwell time of ryanodol-induced events (10 µM ryanodol + 1 µg/ml protamine) | dwell time of ryanodol-induced events (10 µM ryanodol alone) | substate current level as % of the current through the full open channel (Vm = 0 mV) | substate current level as % of the full open current | slope conductance of the induced substate (I-V curve) | effect of IpTxA on RyR2 behavior when protamine is present (50 nM IpTxA + 1 µg/ml protamine, fully activated RyR2) | open probability (Po) after addition of heparin (250 µg/ml heparin after 1 µg/ml protamine, 100 nM cytosolic Ca2+, Vm = 20 mV, n = 5) | effect of subsequent heparin addition on protamine-modified RyR2 (250 µg/ml heparin after 20 µg/ml protamine, Vm = 0 mV)
CC(C)[C@@]1(O)[C@@H](O)[C@@]2(O)[C@@]3(C)C[C@]4(O)O[C@@]5([C@H](O)[C@@H](C)CC[C@]35O)[C@@]2(O)[C@]14C [ryanodol, Ryanodol] | 3.4 ± 0.5 s | 11 ± 3 s and 11.3 ± 2.5 s | 3.7 ± 0.7 s | ~45% | same proportions | 56±2 pS |  |  | 
Imperatoxin A [IpTxA] |  |  |  | ~33% | same proportions | 43±3 pS | little or no effect |  | 
heparin |  |  |  |  |  |  |  | 0.009±0.006 | reversed the effect of protamine
